Experimental data as given in article PMC11013424, “Evaluation of the Lipophilicity of Angularly Condensed Diquino- and Quinonaphthothiazines as Potential Candidates for New Drugs” (Molecules, 2024).

Columns and labels:
[1] = RP-TLC determination of lipophilicity (RM0, logPTLC); conditions: for RM0: RP-18 plate, acetone/TRIS buffer pH 7.4, extrapolated to zero acetone; for b (slope) / -b: slope of RM = RM0 + b·C; for b (slope): acetone/TRIS buffer pH 7.4; for -b: standards I–V; for LogPTLC: from RM0 by calibration logPTLC = 1.2838 RM0 + 0.2138;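 on all read-outs here: silica gel 60 RP-18 F254S plates, TRIS buffer of ionic strength 0.2 M, detection under UV at 254 nm, RF averaged over three or more runs, C in % v/v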
Experimental: RP-TLC was carried out on a silica gel 60 RP-18 F254S 10 cm × 10 cm RP-TLC plate (Merck, Darmstad, Germany). The mobile phase was acetone and an aqueous TRIS (tris(hydroxymethyl)-aminomethane) buffer pH = 7.4 (ionic strength 0.2 M) to meet physiological conditions. […] Angularly condensed diquino- and quinonaphthothiazinethiazines (1–21) and the standards I–V were dissolved in ethanol (2.0 mg/mL). […] Before developing the plates, the chromatographic chambers were saturated with the mobile phase for 0.5 h. After developing the plates and drying in a stream of air, the chromatograms were observed under UV light at λ = 254 nm. At least, three chromatograms were developed for each soluble–solvent combination, and the RF values were averaged. […] The RM0 values were obtained by extrapolation to a zero acetone concentration using the equation RM = RM0 + bC, where C is the concentration (%, v/v) of acetone in the mobile phase.

[2] = tested on: IFNβ expression and IFNβ-dependent downstream genes and proteins; set-up: method as in doi:10.1016/j.molstruc.2023.135700, PMID 30981160, doi:10.1016/j.molstruc.2015.06.046, PMID 25750501, doi:10.1016/j.molstruc.2023.136856; conditions: cited from earlier work
[3] = set-up: method as in doi:10.1016/j.molstruc.2023.135700, PMID 30981160, doi:10.1016/j.molstruc.2015.06.046, PMID 25750501, doi:10.1016/j.molstruc.2023.136856; conditions: cited from earlier work
[4] = set-up: method as in doi:10.1016/j.molstruc.2023.136856; conditions: cited from earlier work
alpha-glucosidase = tested on: alpha-glucosidase; set-up: method as in doi:10.1016/j.molstruc.2023.136856; conditions: cited from earlier work
alpha-amylase = tested on: alpha-amylase; set-up: method as in doi:10.1016/j.molstruc.2023.136856; conditions: cited from earlier work
[5] = set-up: method as in doi:10.1016/j.molstruc.2023.136856; conditions: cited from earlier work; remark: listed apart in the source
[6] = set-up: method as in doi:10.1016/j.molstruc.2023.136856; conditions: cited from earlier work; remark: listed apart in the source

Row | RM0 [1] | b (slope) [1] | Compound | also measured
1 | 4.24 | −0.0582 | CN1c2ccc3ncccc3c2Sc2cc3ccccc3nc21 [Compound 6] | –
2 | 4.30 | −0.058 | C=CCN1c2cnc3ccccc3c2Sc2cc3ccccc3nc21 [Compound 3] | –
3 | 4.29 | −0.0529 | C#CCN1c2ccc3ccccc3c2Sc2cc3ccccc3nc21 [Compound 17] | LogPTLC [1]: 5.76
4 | 4.34 | −0.0548 | C=CCN1c2nc3ccccc3cc2Sc2ccc3ccccc3c21 [Compound 20, 14-allylquinonaphthothiazine] | –
5 | – | – | 6-chloro-ethylureidoethyldiquinothiazine | inhibition of IFNβ expression and IFNβ-dependent downstream genes and proteins [2]: inhibitory activity; activity in in vivo models [3]: suppressive and anti-inflammatory activities
6 | 4.14 | −0.0503 | CN1c2cnc3ccccc3c2Sc2cc3ccccc3nc21 [Compound 2] | –
7 | 4.09 | −0.0507 | C#CCN1c2nc3ccccc3cc2Sc2ccc3ccccc3c21 [Compound 21] | –
8 | 4.24 | −0.0573 | c1ccc2nc3c(cc2c1)Sc1c(ccc2ccccc12)N3 [Compound 14] | LogPTLC [1]: 5.69
9 | 3.72 | −0.0459 | c1ccc2nc3c(cc2c1)Sc1c(ccc2ncccc12)N3 [Compound 5] | –
10 | 3.96 | −0.0539 | C#CCN1c2ccc3ncccc3c2Sc2cc3ccccc3nc21 [Compound 8] | LogPTLC [1]: 5.34
11 | – | −0.0478 | C=CCN1c2nc3ccccc3cc2Sc2ccc3cccnc3c21 [Compound 13] | –
12 | 3.35 | −0.0383 | C#CCN1c2cnc3ccccc3c2Sc2cc3ccccc3nc21 [Compound 4] | –
13 | 4.18 | −0.0538 | CN1c2nc3ccccc3cc2Sc2ccc3ccccc3c21 [Compound 19] | LogPTLC [1]: 5.58
14 | 4.21 | −0.0576 | CN1c2nc3ccccc3cc2Sc2ccc3cccnc3c21 [Compound 12] | –
15 | 3.81 | −0.0484 | c1ccc2nc3c(cc2c1)Sc1ccc2ccccc2c1N3 [Compound 18] | –
16 | 4.46 | −0.0534 | C=CCN1c2ccc3ncccc3c2Sc2cc3ccccc3nc21 [Compound 7] | –
17 | 0.78 | – | CC(=O)Nc1ccccc1 [Standard I, acetanilide, reference compound] | LogPTLC [1]: 1.21; -b [1]: 0.0162
18 | 4.37 | −0.0540 | CN1c2nc3ccccc3cc2Sc2ccc3ncccc3c21 [Compound 10] | –
19 | 4.49 | −0.0527 | CN1c2ccc3ccccc3c2Sc2cc3ccccc3nc21 [Compound 15] | –

Row | Compound | RM0 [1] | b (slope) [1] | also measured
20 | O=C(O)c1ccccc1 [Standard II, benzoic acid, reference compound] | 1.16 | – | -b [1]: 0.0247
21 | Clc1ccc(C(c2ccc(Cl)cc2)C(Cl)(Cl)Cl)cc1 [Standard V, p,p’-DDT, reference compound] | 4.69 | – | LogPTLC [1]: 6.24; -b [1]: 0.0564
22 | c1ccc2nc3c(cc2c1)Sc1ccc2ncccc2c1N3 [Compound 9] | 3.69 | −0.0498 | lipid peroxidation effect [4]: strong; alpha-glucosidase activity inhibition (alpha-glucosidase): inhibited; alpha-amylase activity inhibition (alpha-amylase): inhibited; ion chelating effect [5]: strong; free radical scavenging effect [6]: strong
23 | c1ccc2nc3c(cc2c1)Sc1c(cnc2ccccc12)N3 [Compound 1, 7H-diquino[3,2-b;3′,4′-e]thiazine] | 3.15 | −0.0383 | lipid peroxidation effect [4]: strong; alpha-glucosidase activity inhibition (alpha-glucosidase): inhibited; alpha-amylase activity inhibition (alpha-amylase): inhibited; ion chelating effect [5]: strong; free radical scavenging effect [6]: strong
24 | c1ccc2nc3c(cc2c1)Sc1ccc2cccnc2c1N3 [Compound 11] | 3.48 | −0.0462 | lipid peroxidation effect [4]: strong; alpha-glucosidase activity inhibition (alpha-glucosidase): inhibited; alpha-amylase activity inhibition (alpha-amylase): inhibited; ion chelating effect [5]: strong; free radical scavenging effect [6]: strong; LogPTLC [1]: 4.72
